How the values were obtained:
MDA-MB-231 cells [1] = assay: Annexin-V/PI assay; type: cell-based, human; details: MDA-MB-231, 72 h; positive controls Cis-Pt 50 μM, Etoposide 5 μM
Procedure: (§1) Surface exposure of PS on apoptotic cells was measured by flow cytometry with Cytomics FC500 (Beckman Coulter) by adding simultaneously annexin-V conjugated to fluorescein isothiocyanate (FITC) and PI to cells according to the manufacturer′s instructions (Annexin-V Fluos, Roche Diagnostic).

Jurkat cells [2] = assay: Annexin-V/PI assay; type: cell-based, human; details: 72 h, positive controls Cis-Pt 50 μM, Etoposide 5 μM
Procedure: as §1

MCF-7 cells [3] = assay: Annexin-V/PI assay; type: cell-based, human; details: MCF-7, 72 h; positive controls Cis-Pt 50 μM, Etoposide 5 μM
Procedure: as §1

Human fibroblasts = assay: Antiproliferative assay in non-tumoral cells; type: cell-based; details: Fibroblast, mean ± SEM
From the text: Human fibroblasts from foreskin were isolated as previously described[58] and maintained in DMEM medium with 10% fetal bovine serum added.

human ChoKα1 = biological target: T1, human ChoKα1 (Homo sapiens, UniProt P35790); assay: Tryptophan fluorescence quenching; type: binding; details: mean ± S.D. of at least three independent experiments; 25 °C, enzyme 1 μM; read-out: HsChoKα1 Kd
T1 construct: made in house
T1 sequence (P35790 whole entry): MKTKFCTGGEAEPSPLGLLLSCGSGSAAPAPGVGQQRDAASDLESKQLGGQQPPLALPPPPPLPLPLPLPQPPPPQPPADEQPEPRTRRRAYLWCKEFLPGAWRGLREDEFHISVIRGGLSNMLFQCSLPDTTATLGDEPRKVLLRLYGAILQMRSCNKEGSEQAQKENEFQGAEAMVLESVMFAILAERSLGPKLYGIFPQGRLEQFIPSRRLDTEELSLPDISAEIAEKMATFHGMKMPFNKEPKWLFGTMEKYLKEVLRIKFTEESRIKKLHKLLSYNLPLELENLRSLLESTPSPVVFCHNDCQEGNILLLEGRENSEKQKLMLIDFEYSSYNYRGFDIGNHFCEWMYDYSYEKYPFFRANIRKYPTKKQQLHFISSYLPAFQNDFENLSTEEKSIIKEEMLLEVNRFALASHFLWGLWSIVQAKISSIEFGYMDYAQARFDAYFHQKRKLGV
Procedure: All compounds were prepared in 100% DMSO. Their Kds against human ChoKα1 were measured by monitoring the quenching of tryptophan fluorescence. All experiments were performed in a Cary Eclipse spectrofluorometer (Varian) at 25 °C with the enzymes at 1 μM, and concentrations of compounds varying from 0.1 to 5 μM for ChoKα1 in 25 mM Tris, 150 mM NaCl, pH 7.5. Fluorescence emission spectra were recorded in the 300–400 nm range with an excitation wavelength of 280 nm, with slit width of 5 nm. Controls were determined by incubating the enzymes with equivalent amounts of DMSO. As indicated previously, data analysis was performed in Prism (GraphPad software) considering a model with a single binding site (Eq. 1), where F0 is the intrinsic fluorescence of the enzyme in the absence of quencher (Q), F1 is the observed fluorescence at a given quencher concentration, fa is the fractional degree of fluorescence, and Kd is the dissociation constant.

PBL (resting) = assay: Antiproliferative assay in non-tumoral cells (MTT); type: cell-based; details: Homo sapiens, 72 h, mean ± SEM
Procedure: (§2) Peripheral mononuclear cells (PBMC) from healthy donors were obtained by separation on Lymphoprep (Fresenius KABI Norge AS) gradient. After extensive washing, cells were resuspended (1 × 10^6 cells/mL) in RPMI-1640 with 10% fetal bovine serum and incubated overnight. For cytotoxicity evaluations in proliferating PBL cultures, non-adherent cells were resuspended at 5 × 10^5 cells/mL in growth medium, containing 2.5 μg/mL PHA (Irvine Scientific). Different concentrations of the test compounds were added, and viability was determined 72 h later by the MTT test. For cytotoxicity evaluations in resting PBL cultures, non-adherent cells were resuspended (5 × 10^5 cells/mL) and treated for 72 h with the test compounds, as described above.

PBL (+Pha) = assay: Antiproliferative assay in non-tumoral cells (MTT); type: cell-based; details: Homo sapiens, non-tumoral cells stimulated with phytohematoagglutinin, 72 h, mean ± SEM
Procedure: as §2

purified human ChoKα1 = purified human ChoKα1 (Homo sapiens, UniProt P35790); assay: Determination of human choline kinase α1 activity ([methyl-14C]choline incorporation into phosphocholine); type: biochemical; details: mean ± SEM, three independent experiments; read-out: IC50 ChoKα1 purified
Chain of purified human ChoKα1 (P35790 whole entry): as above
Procedure: The effect of the different inhibitors on human choline kinase (ChoK) was assayed in ChoKα1 purified as previously described[32]. In each experiment DMSO-assays were always run in parallel as a control. DMSO in no case exceeded a concentration of 0.1% in order to avoid unspecific ChoK inhibition. ChoK activity was assayed by measuring the rate of incorporation of ^14C from [methyl-^14C]choline into phosphocholine both in the presence or absence of different inhibitor concentrations. Briefly, the final reaction mixture contained 100 mM Tris (pH 8.5), 10 mM MgCl2, and 10 mM ATP, and 20 ng of purified ChoKα1. […] The assay was stopped by immersing the reaction tubes in boiling water for 3 min. Aliquots of the reaction mixture were applied to the origin of Silica Gel plates in the presence of phosphocholine (0.1 mg) and choline (0.1 mg) as carriers. The chromatography was developed in methanol/0.6% NaCl/28% NH4OH in water (50:50:5, v/v/v) as solvent. Phosphocholine was visualized under exposure to iodine vapor and the corresponding spot was scraped and transferred to scintillation vials for measurement of radioactivity by a Beckman 6000-TA (Madrid, Spain) liquid-scintillation counter. At least three experiments were performed in all assays.

HeLa cells = assay: Antiproliferative MTT assay; type: cell-based; details: Homo sapiens, 72 h, mean ± SEM
Procedure: (§3) Human T-cell leukemia (Jurkat), human B-cell leukemia (RS 4,11) and human promyelocytic leukemia (HL-60) cells were grown in RPMI-1640 medium (Gibco, Milan, Italy). Breast adenocarcinoma (MCF-7 and MDA-MB-231), human non-small cell lung carcinoma (A549), human cervix carcinoma (HeLa), human prostate adenocarcinoma (PC-3), and human colon adenocarcinoma (HT-29) cells were grown in DMEM medium (Gibco, Milan, Italy). Both media were supplemented with 115 units/mL of penicillin G (Gibco, Milan, Italy), 115 μg/mL of streptomycin (Invitrogen, Milan, Italy) and 10% fetal bovine serum (Invitrogen, Milan, Italy). Stock solutions (10 mM) of the different compounds were obtained by dissolving them in DMSO. Individual wells of 96-well tissue-culture microtiter plates were inoculated with 100 μL of complete medium containing 8 × 10^3 cells. The plates were incubated at 37 °C in a humidified 5% CO2 incubator for 18 h prior to the experiments. After medium removal, 100 μL of fresh medium containing the test compound at different concentrations was added to each well and incubated at 37 °C for 72 h. The percentage of DMSO in the medium in no case exceeded 0.25%.

PC-3 cells = assay: Antiproliferative MTT assay; type: cell-based; details: Homo sapiens, 72 h, mean ± SEM
Procedure: as §3

HT-29 cells = assay: Antiproliferative MTT assay; type: cell-based; details: Homo sapiens, 72 h, mean ± SEM
Procedure: as §3

RS4,11 cells = assay: Antiproliferative MTT assay; type: cell-based; details: Homo sapiens, 72 h, mean ± SEM
Procedure: as §3

HL-60 cells = assay: Antiproliferative MTT assay; type: cell-based; details: Homo sapiens, 72 h, mean ± SEM
Procedure: as §3

MDA-MB-231 cells [4] = assay: Antiproliferative MTT assay; type: cell-based; details: Homo sapiens, 72 h, mean ± SEM
Procedure: as §3

Jurkat cells [5] = assay: Antiproliferative MTT assay; type: cell-based; details: Homo sapiens, 72 h, mean ± SEM
Procedure: as §3

A549 cells = assay: Antiproliferative MTT assay; type: cell-based; details: Homo sapiens, 72 h, mean ± SEM
Procedure: as §3

MCF-7 cells [6] = assay: Antiproliferative MTT assay; type: cell-based; details: Homo sapiens, MCF7, 72 h, mean ± SEM
Procedure: as §3

HUVEC = assay: Antiproliferative assay in non-tumoral cells; type: cell-based; details: Homo sapiens, mean ± SEM
Procedure: Human Umbilical Vein Endothelial cells (HUVEC), were prepared from human umbilical-cord veins, as previously described. The adherent cells were maintained in M200 medium added by LSGS (low serum growth supplement), containing FBS, hydrocortisone, hEGF, bFGF, heparin, gentamycin/amphotericin (Life Technologies, Monza, Italy). Once confluent, the cells were detached by trypsin–EDTA solution and used in experiments from the first to sixth passages.

[7] = Solubility in crystallization mother liquor (crystal soaking); type: physicochemical; details: 20% PEG 3350, 0.25 M potassium isothiocyanate, 10% DMSO, compound 50 mM
Procedure: ChoKα1 at 20 mg/ml in buffer 25 mM Tris/HCl, 150 mM NaCl pH 7.5 was used as the protein solution. The sitting-drop vapor-diffusion method was used to produce apo-crystals by mixing 0.5 μl of the protein solution and an equal volume of mother liquor (crystals appeared in 20% polyethylene glycol [PEG] 3350 and 0.25 M potassium isothiocyanate). Tetragonal crystals (space group P43212) grew within in 3–4 days and were soaked in 2 μL of the mother liquor with 0.2 μL of a dilution 500 mM of compounds 10a, 10g, 10h, 10k, and 10l in DMSO (DMSO was at 10% final concentration in the mix whereas compounds were at 50 mM) for two days. Only crystals soaked with compound 10a contained the compound. The crystals used in this study were cryoprotected in mother-liquor solutions containing 20% ethylenglycol and frozen in a nitrogen gas stream cooled to 100 K.

[8] = test system: breast- and colon-cancer cells; design: method as in earlier work; details: 15 μM; ref 15 (Sanchez-Lopez et al.); cited from earlier work
MDA-MB-231 cells [9] = assay: Cell-cycle distribution analysis (PI, flow cytometry); type: cell-based, human; details: MDA-MB-231
Procedure: [The source words this procedure for another cell line and reports this cell line under the same test.] For flow-cytometric analysis of the DNA content, 5 × 10^5 HeLa or Jurkat cells in exponential growth were treated with different concentrations of the test compounds for 24 and 48 h. After the incubation period, the cells were collected, centrifuged, and fixed with ice-cold ethanol (70%). The cells were then treated with lysis buffer containing RNAse A and 0.1% Triton X-100, and then stained with propidium iodide (PI). Samples were analyzed in a Cytomics FC500 flow cytometer (Beckman Coulter). DNA histograms were analyzed using MultiCycle for Windows (Phoenix Flow Systems).

mice = details: mouse, in vivo; cited from earlier work

| Structure (SMILES) | Apoptotic cells (annexin-V/PI) (MDA-MB-231 cells [1]) | Apoptotic cells (annexin-V/PI) (Jurkat cells [2]) | Apoptotic cells (annexin-V/PI) (MCF-7 cells [3]) | GI50 (Human fibroblasts) [nM] | Kd (human ChoKα1) [nM] | GI50 (PBL (resting)) [nM] | GI50 (PBL (+Pha)) [nM] | IC50 (purified human ChoKα1) [nM] | GI50 (HeLa cells) [nM] | GI50 (PC-3 cells) [nM] | GI50 (HT-29 cells) [nM] | GI50 (RS4,11 cells) [nM] | GI50 (HL-60 cells) [nM] | GI50 (MDA-MB-231 cells [4]) [nM] | GI50 (Jurkat cells [5]) [nM] | GI50 (A549 cells) [nM] | GI50 (MCF-7 cells [6]) [nM] | GI50 (HUVEC) [nM] | Cell-cycle effect (G1 phase) [8] | Cells with hypodiploid DNA content (apoptotic cells by cell-cycle analysis) (MDA-MB-231 cells [9]) | further results |
| --- | --- | --- | --- | --- | --- | --- | --- | --- | --- | --- | --- | --- | --- | --- | --- | --- | --- | --- | --- | --- | --- |
| N.N.[Cl][Pt][Cl] [Cis-Pt] | induce significant apoptosis | induce significant apoptosis | induce significant apoptosis |  |  |  |  |  |  |  |  |  |  |  |  |  |  |  |  |  |  |
| CN(c1ccc(Cl)cc1)c1cc[n+](Cc2ccc(OCCOc3ccc(C[n+]4ccc(N(C)c5ccc(Cl)cc5)c5ccccc54)cc3)cc2)c2ccccc12.[Br-].[Br-] [Compound 10g, 1,1′-(((ethane-1,2-diylbis(oxy))bis(4,1-phenylene))bis(methylene))bis(4-((4-chlorophenyl)(methyl)amino)quinolinium) bromide] |  |  |  | 7400 ± 2400 | 517 ± 99 | 980 ± 250 | 550 ± 110 | 3270 ± 660 | 250 ± 60 | 260 ± 10 | 750 ± 120 | 150 ± 40 | 710 ± 240 | 190 ± 9 | 98 ± 31 | 110 ± 18 | 460 ± 63 | 10400 ± 3500 |  |  | melting point: 178 to 180 °C |
| Clc1ccc2c(N3CCCC3)cc[n+](Cc3ccc(OCCOc4ccc(C[n+]5ccc(N6CCCC6)c6ccc(Cl)cc65)cc4)cc3)c2c1.[Br-].[Br-] [Compound 10l, 1,1′-(((ethane-1,2-diylbis(oxy))bis(4,1-phenylene))bis(methylene))bis(7-chloro-4-(pyrrolidin-1-yl)quinolinium) bromide] |  |  |  | 9600 ± 1300 | 357 ± 39 | 3800 ± 550 | 490 ± 150 | 920 ± 10 | 370 ± 180 | 800 ± 200 | 560 ± 210 | 420 ± 140 | 160 ± 70 | 50 ± 20 | 7 ± 3 | 140 ± 60 | 22 ± 7 | 11400 ± 5900 |  |  | Solubility in the mother liquor [7]: insoluble in the mother liquor |
| COc1cc([C@@H]2c3cc4c(cc3[C@@H](O[C@@H]3O[C@@H]5CO[C@@H](C)O[C@H]5[C@H](O)[C@H]3O)[C@H]3COC(=O)[C@H]23)OCO4)cc(OC)c1O [Etoposide] | induce significant apoptosis | induce significant apoptosis | induce significant apoptosis |  |  |  |  |  |  |  |  |  |  |  |  |  |  |  |  |  |  |
| CN(C)c1cc[n+](Cc2ccc(CCCCc3ccc(C[n+]4ccc(N(C)C)cc4)cc3)cc2)cc1 [MN58b, reference compound] |  |  |  |  |  | 2000 ± 400 | 150 ± 50 |  | 1900 ± 100 |  | 1900 ± 400 | 1000 ± 300 | 320 ± 30 | 310 ± 120 | 350 ± 100 | 540 ± 200 | 1800 ± 60 | 2100 ± 580 | significant decrease of the G1 phase | negligible percentage of apoptotic cells |  |
| CN(c1ccc(Cl)cc1)c1cc[n+](Cc2ccc(-c3ccc(C[n+]4ccc(N(C)c5ccc(Cl)cc5)c5ccccc54)cc3)cc2)c2ccccc12 [RSM932A, reference compound] |  |  |  |  |  | 1100 ± 90 | 230 ± 50 |  | 830 ± 100 |  | 400 ± 200 | 170 ± 40 | 930 ± 100 | 170 ± 50 | 410 ± 100 | 450 ± 90 | 180 ± 100 | 460 ± 47 | significant decrease of the G1 phase | negligible percentage of apoptotic cells | Toxicity profile and tolerability (mice): low-toxicity profile with improved tolerability |
